Results taken from patent US20250320252A1 (The Scripps Research Institute, priority 2021, published 2025).
Several values for one entry are separate records, joined by “and”; a condition that tells them apart may be missing. Equal entries are not always repeated. Where two headings read alike, the source gives them in different places.

Experiments:
in vitro = in vitro ADME; details: dog, human, plasma
Experimental: (§1) To investigate the stability of the conjugates in mouse, cyno monkey, dog, and human plasma, conjugate mCMD307 was incubated in plasma for 24 h (Table 13). At certain time intervals a sample of plasma was taken and plasma proteins precipitated. Samples were analyzed using LC-MS.

[1] = Plasma stability, 24 h, LC-MS, mouse plasma; type: in vitro ADME
Experimental: as §1

[2] = type: in vitro ADME, cynomolgus monkey
Experimental: as §1

[3] = Pharmacokinetics in CD-1 mouse, plasma concentration by LC-MS; type: in vivo
Experimental: The peptide plasma concentration at various time points was determined using LC-MS.

[4] = dog, in vivo
[5] = cynomolgus monkey, in vivo
wild-type mice = experiment: Oral glucose tolerance test 2 h and 96 h post injection in wild-type mice; type: in vivo, mouse; details: 10 nmol/kg s.c., vs vehicle
Experimental: Data are means±SE, n=6 per group.
Oral glucose tolerance test (OGTT) Female Charles River CD-1 mice were fasted overnight and then administrated 150 μL of each peptide in PBS (pH=8.2) by i.v. or s.c. route.

normal mice = experiment: Oral glucose tolerance test 12 h after single SC dose in mice; type: in vivo, mouse; details: 10 nmol/kg S.C., 12 h before glucose
Experimental: Mice were fasted overnight prior to the oral glucose tolerance test (OGTT), and then dosed with peptide. After 12 h, 1 g of glucose solution per kg body weight was administered orally, and mouse tail blood glucose levels were measured before (0 min) and after glucose challenge for 90 minutes (with measurements at 15, 30, 60 and 90 minutes) (FIG. 16). The data were compared using the unpaired Student's t test. Where appropriate, data were compared using repeated measures or one-way analysis of variance, followed by the Student-Newman-Keuls post hoc test. Calculations for […] (mg/dL*min) were also analyzed and graphed in FIG. 16. […]. […].

[6] = 1 mg/kg I.V., individual animals, 1 mg/kg
[7] = 1 mg/kg S.C., individual animals, 1 mg/kg

With CC[C@H](C)[C@H](NC(=O)[C@H](CO)NC(=O)[C@H](Cc1ccc(O)cc1)NC(=O)[C@H](CC(=O)O)NC(=O)[C@H](CO)NC(=O)[C@@H](NC(=O)[C@H](Cc1ccccc1)NC(=O)[C@@H](NC(=O)CNC(=O)[C@H](CCC(=O)O)NC(=O)C(C)(C)NC(=O)[C@@H](N)Cc1ccc(O)cc1)[C@@H](C)O)[C@@H](C)O)C(=O)N[C@@H](Cc1ccc(O)cc1)C(=O)N[C@H]1CCCCNC(=O)CN(C(=O)CCNC(=O)CCOCCOCCOCCNC(=O)CCCCCCCCCCCCCCCCC(=O)O)CC(=O)NCCCC[C@@H](C(=O)N[C@@H](Cc2ccccc2)C(=O)N[C@H](C(=O)N[C@@H](CC(N)=O)C(=O)N[C@@H](Cc2c[nH]c3ccccc23)C(=O)N[C@@H](CC(C)C)C(=O)N[C@@H](CC(C)C)C(=O)N[C@@H](C)C(=O)NCC(=O)NCC(=O)N2CCC[C@H]2C(=O)N[C@@H](CO)C(=O)N[C@@H](CO)C(=O)NCC(=O)N[C@@H](C)C(=O)N2CCC[C@H]2C(=O)N2CCC[C@H]2C(=O)N2CCC[C@H]2C(=O)N[C@@H](CO)C(N)=O)C(C)C)NC(=O)C(C)(C)NC(=O)[C@H](C)NC(=O)[C@H](C)NC(=O)[C@H](CCC(N)=O)NC(=O)[C@H](CCCCN)NC(=O)[C@H](CC(=O)O)NC1=O [mCMD307, YAibEGT-FTSDY-SIYXD-KQAAAib-XFVNW-LLAGG-PSSGA-PPPS-NH2 (where each X is K)] the remaining at 24 h (in vitro) was 92%, the “Area under the peak (%)” value [1] was 53% and the “Area under the peak (%)” value [2] was 87%.

For CC[C@H](C)[C@H](NC(=O)[C@H](CC(C)C)NC(=O)[C@H](Cc1c[nH]c2ccccc12)NC(=O)[C@@H]1CSCC(=O)NCCN(C(=O)CCC(=O)NCCOCCOCCC(=O)NCCOCCOCCC(=O)NCCCC[C@H](NC(=O)CCCCCCCCCCCCCCCCC(=O)O)C(=O)O)CCNC(=O)CSC[C@H](NC(=O)[C@H](CCCCN)NC(=O)[C@H](CC(=O)O)NC(=O)[C@H](CC(C)C)NC(=O)[C@H](Cc2ccc(O)cc2)NC(=O)[C@@H](NC(=O)[C@H](CO)NC(=O)[C@H](Cc2ccc(O)cc2)NC(=O)[C@H](CC(=O)O)NC(=O)[C@H](CO)NC(=O)[C@@H](NC(=O)[C@H](Cc2ccccc2)NC(=O)[C@@H](NC(=O)CNC(=O)[C@H](CCC(=O)O)NC(=O)C(C)(C)NC(=O)[C@@H](N)Cc2ccc(O)cc2)[C@@H](C)O)[C@@H](C)O)[C@@H](C)CC)C(=O)N[C@@H](C)C(=O)N[C@@H](C)C(=O)NC(C)(C)C(=O)N[C@@H](CCC(=O)O)C(=O)N[C@@H](Cc2ccccc2)C(=O)N[C@@H](C(C)C)C(=O)N1)C(=O)N[C@@H](C)C(=O)NCC(=O)NCC(=O)N1CCC[C@H]1C(=O)N[C@@H](CO)C(=O)N[C@@H](CO)C(=O)NCC(=O)N[C@@H](C)C(=O)N1CCC[C@H]1C(=O)N1CCC[C@H]1C(=O)N1CCC[C@H]1C(=O)N[C@@H](CO)C(N)=O [mCMZ371, YAibEGT-FTSDY-SIYLD-KXAAAib-EFVXW-LIAGG-PSSGA-PPPS-NH2 (where each X is C)], the “AUC compared with mCMZ370” value ([3]; 1 mg/kg I.V. or S.C.) was “significantly larger area under the curve”, the “half-life compared with mCMZ370” value ([3]; 1 mg/kg I.V. or S.C.) was “longer half-life” and the Tlast ([3]; 1 mg/kg I.V., individual animals) was 72 h. The “AUC—%Extrap—pred” value [3, 6] was 0.75%, the “Cl—pred” value [3, 6] was 2.76 mL/h/kg and 2.46 mL/h/kg and the Tlast ([3]; 1 mg/kg S.C., individual animals) was 72 h. For the same molecule, the “Cl—Fpred” value [3, 7] was 7.2 mL/h/kg and 4.8 mL/h/kg and 14.4 mL/h/kg, the “V—F—pred” value [3, 7] was 0.06 L/kg and 0.12 L/kg and 0.08 L/kg and the Vd ([3]; in vivo, iv, 1 mg/kg I.V., individual animals, read-out: Vss—pred) was 0.054 L/kg. The clearance ([3]; mouse, in vivo, iv, 1 mg/kg, 1 mg/kg I.V., individual animals, read-out: Cl—pred) was 2.88 mL/h/kg, the “t1/2 in dogs” value [4] was “long t1/2” and the Tlast ([4]; iv) was 240 h. The Tlast ([4]; sc) was 240 h, the “t1/2 in cynomolgus monkeys” value [5] was “long t1/2” and the Tlast ([5]; iv) was 240 h. The Tlast ([5]; sc) was 240 h.

In the case of Semaglutide, the “glucose tolerance (OGTT) 96 h after administration” value (wild-type mice) was “did not exhibit any improvement over the vehicle” and the “effects on glucose tolerance at 10 nmol/kg” value (normal mice) was “indistinguishable effects on glucose tolerance”.
